The record followed here is patent US10519107B2, “Sulfonamide compounds and their use as STAT5 inhibitors” (Governing Council of the University of Toronto, priority 2014, dated 2019).

A value given as a limit tells only on which side of the number the result lay.

Assay [1] has as its target T1, wildtype STAT5B protein (SH2 domain) (Homo sapiens, UniProt P51692).
T1 sequence (P51692 1-787): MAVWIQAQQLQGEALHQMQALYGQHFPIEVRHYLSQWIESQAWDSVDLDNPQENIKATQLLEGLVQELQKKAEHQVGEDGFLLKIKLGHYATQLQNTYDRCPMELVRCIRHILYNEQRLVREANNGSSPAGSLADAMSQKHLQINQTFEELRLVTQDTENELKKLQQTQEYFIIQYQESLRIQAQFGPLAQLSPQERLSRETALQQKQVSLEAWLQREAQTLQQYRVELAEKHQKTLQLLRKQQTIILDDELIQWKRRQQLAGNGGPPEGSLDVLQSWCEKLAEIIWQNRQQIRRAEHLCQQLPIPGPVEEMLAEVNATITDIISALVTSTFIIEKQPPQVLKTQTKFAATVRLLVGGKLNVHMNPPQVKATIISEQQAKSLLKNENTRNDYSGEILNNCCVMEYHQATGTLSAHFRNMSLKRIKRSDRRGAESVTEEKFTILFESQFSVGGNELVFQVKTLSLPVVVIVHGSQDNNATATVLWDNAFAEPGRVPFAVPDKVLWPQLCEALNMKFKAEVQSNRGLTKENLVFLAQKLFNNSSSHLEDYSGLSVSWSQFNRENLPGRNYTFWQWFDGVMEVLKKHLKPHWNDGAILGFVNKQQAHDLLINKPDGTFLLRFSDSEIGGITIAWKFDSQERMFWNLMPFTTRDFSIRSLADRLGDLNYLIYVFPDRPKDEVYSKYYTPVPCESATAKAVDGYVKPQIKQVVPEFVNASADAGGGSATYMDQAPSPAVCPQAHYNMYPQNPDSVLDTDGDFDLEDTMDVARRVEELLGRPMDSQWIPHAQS
The assay can be described thus: Fluorescence polarization competitive binding, STAT5b. The following applies: FP; for Ki: converted from IC50 with Equation 1; for IC50: 5-FAM-GpYLVLDKW 10 nM, STAT5B 250 nM. As to the method: (§1) Fluorescence assays were performed in flat black 384-well plates (Corning) and fluorescence polarization measurements were taken with the Infinite M1000 machine (Tecan, Crailsheim, Germany). The buffer conditions for all assays were 20 mM HEPES, 50 mM NaCl, 1 mM EDTA, 2 mM dithiothreitol, pH 7.5 and the final DMSO concentration in the wells was kept constant at 10%.
The point at which 80% of the fluoresceinated-phosphopeptide was bound was used as the optimal protein concentration required for the competitive fluorescent polarization assays.
Compounds were titrated at concentrations ranging from 1->60,000 nM and incubated for a further 15 minutes at which point fluorescence polarization measurements were taken in triplicate. The final well concentrations of the fluoresceinated-phosphopeptide and STAT5B were 10 nM and 250 nM, respectively.
The resulting fluorescence polarization measurements were normalized and plotted against compound concentration on a logarithmic scale. The raw data was fitted with a standard dose-normalized response inhibition curve using GraphPad Prism 6 software.
(§2) Modified Cheng-Pruskoff equation containing a correction factor for protein concentration.

The target in assay [2] is wildtype STAT3 protein (Homo sapiens, UniProt P40763). The assay can be described thus: Fluorescence polarization competitive binding, STAT3. The following applies: FP; converted from IC50 with Equation 1. How it is done:
as §1, with “Binding of compounds of the disclosure to the STAT5b SH2 domain was assessed using fluorescence polarization assays similar to those previously reported.^15 Analogous assays were also performed with STAT3 protein to determine the specificity of the compounds (13a-d). Fluorescence” for “Fluorescence”
Calibration curves for the wildtype STAT3 and STAT5b proteins were derived by incubating a 10 nM final concentration of fluoresceinated-phosphopeptide (5-FAM-pYLPQTC (SEQ ID NO:1) and 5-FAM-GpYLVLDKW (SEQ ID NO:2) for STAT3 and STAT5B, respectively), which are known to bind the SH2 domains, with increasing concentrations of protein (as shown in FIG. 3). The point at which 80% of the fluoresceinated-phosphopeptide was bound was used as the optimal protein concentration required for the competitive fluorescent polarization assays.
For the STAT5b fluorescence polarization assays, the 5-FAM-GpYLVLDKW (SEQ ID NO:2) peptide and STAT5b protein were first incubated for 30 minutes at room temperature. Compounds were titrated at concentrations ranging from 1->60,000 nM and incubated for a further 15 minutes at which point fluorescence polarization measurements were taken in triplicate. The final well concentrations of the fluoresceinated-phosphopeptide and STAT5B were 10 nM and 250 nM, respectively. The same protocol was used for the analogous STAT3 FP assays, except that the 5-FAM-pYLPQTC (SEQ ID NO:1) peptide was used as a probe and the final STAT3 concentration was 150 nM in each well.
The resulting fluorescence polarization measurements were normalized and plotted against compound concentration on a logarithmic scale. The raw data was fitted with a standard dose-normalized response inhibition curve using GraphPad Prism 6 software. The IC50 values were converted to Ki values using Equation 1, which corrects for protein concentration and is a more accurate determination of inhibitory constants in a fluorescence polarization assay than the Cheng-Pruskoff equation.^15 All inhibitory constants and calculated Ki values are summarized in Table 1.
as §2

Sequence of wildtype STAT3 protein (P40763 whole entry, species assumed, the tested form may be a part): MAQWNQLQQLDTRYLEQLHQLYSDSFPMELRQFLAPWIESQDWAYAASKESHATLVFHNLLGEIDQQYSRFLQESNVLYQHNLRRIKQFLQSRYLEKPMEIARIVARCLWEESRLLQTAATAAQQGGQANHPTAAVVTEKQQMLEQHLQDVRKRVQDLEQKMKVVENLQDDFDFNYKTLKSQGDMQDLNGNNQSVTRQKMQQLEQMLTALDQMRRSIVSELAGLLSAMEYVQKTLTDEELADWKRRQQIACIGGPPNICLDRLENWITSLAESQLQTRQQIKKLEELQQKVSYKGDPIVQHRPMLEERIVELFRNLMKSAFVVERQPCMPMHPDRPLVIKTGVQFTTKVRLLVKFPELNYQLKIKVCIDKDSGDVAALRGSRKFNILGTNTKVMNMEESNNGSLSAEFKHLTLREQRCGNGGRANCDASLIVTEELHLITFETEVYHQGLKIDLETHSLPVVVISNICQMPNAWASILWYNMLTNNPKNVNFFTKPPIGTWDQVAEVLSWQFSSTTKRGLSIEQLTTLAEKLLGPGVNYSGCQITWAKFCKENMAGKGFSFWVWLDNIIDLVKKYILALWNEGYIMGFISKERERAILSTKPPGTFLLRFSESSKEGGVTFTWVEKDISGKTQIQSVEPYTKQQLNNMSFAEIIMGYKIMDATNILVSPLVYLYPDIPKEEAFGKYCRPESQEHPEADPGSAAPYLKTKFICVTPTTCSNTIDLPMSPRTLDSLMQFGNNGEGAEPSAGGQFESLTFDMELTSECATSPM

`O=c1ccoc2ccccc12` [Chromone, reference compound] showed an inhibition constant (Ki) in assay [1] greater than 60000 nM.
Compound `Cc1cc(C)c(S(=O)(=O)N(CC(=O)N(Cc2cc(C(C)(C)C)cc(C(C)(C)C)c2)c2ccc(C(=O)O)c(O)c2)Cc2ccc(Cl)cc2)c(C)c1` [Compound 13b, 4-(2-((N-(4-chlorobenzyl)-2,4,6-trimethylphenyl)sulfonamido)-N-(3,5-di-tert-butylbenzyl)acetamido)-2-hydroxybenzoic Acid] displayed a Ki in assay [2] greater than 60 µM. In addition, in assay [1], the IC50 was 6.53 µM and the inhibition constant Ki stood at 2570 nM.
Turning to `Cc1cc(C)c(S(=O)(=O)N(CC(=O)N(Cc2ccc3ccccc3c2)c2ccc(C(=O)O)c(O)c2)Cc2ccc(Cl)cc2)c(C)c1` [Compound 13c, 4-(2-((N-(4-chlorobenzyl)-2,4,6-trimethylphenyl)sulfonamido)-N-(naphthalene-2-ylmethyl)acetamido)-2-hydroxybenzoic Acid], the figures for the inhibition constant Ki in assay [2] and in assay [1] were greater than 60 µM and 3240 nM, respectively. The compound further gave an IC50 in assay [1] of 8.2 µM.
On to `O=C(O)c1ccc(N(Cc2ccc3ccccc3c2)C(=O)CN(Cc2ccc(Cl)cc2)S(=O)(=O)c2c(F)c(F)c(F)c(F)c2F)cc1O` [Compound 13d, 4-(2-((N-(4-chlorobenzyl)-2,3,4,5,6-pentafluorophenyl)sulfonamido)-N-(-naphthalene-2-ylmethyl)acetamido)-2-hydroxybenzoic Acid], for which the inhibition constant Ki in assay [2] was greater than 60 µM. In assay [1], the concentration for half-maximal inhibition (IC50) worked out at 3.95 µM and the Ki is 1560 nM.
